In US20250176547A1, “AGRICULTURE COMPOSITION” (Nippon Kayaku Kabushiki Kaisha, priority 2022, published 2025):

How the values were obtained:
Assay type in all cases: in vivo
Tetranychus urticae = test: Biological Test Example 1: test for controlling Tetranychus urticae (leaf spray); conditions: composition diluted 1000 times with water, 30 mL sprayed on kidney bean leaves, 25° C., two days after the treatment
Experimental: Kidney bean leaves were cut into squares that measured 2.5 cm on one side, and the cut leaves were placed on absorbent cotton moistened with water. Ten Tetranychus urticae […] were released thereon. 30 mL of each agricultural composition diluted 1000 times with water was sprayed on the kidney bean leaves by using a hand spray. After air drying, the bean leaves were transferred into a plastic cup and stored in a constant temperature chamber at 25° C. Two days after the treatment, the life and death of the imagoes was observed, and the death rate was calculated.

Thrips palmi = test: Biological Test Example 2: test for controlling Thrips palmi (leaf spray); conditions: first instar larvae; composition diluted 500 times with water, 30 mL sprayed on kidney bean leaves, 25° C., one day after the treatment
Experimental: (§1) Kidney bean leaves were cut into squares that measured 2.5 cm on one side, and the cut leaves were placed on absorbent cotton moistened with water. Ten first instar larvae of Thrips palmi were released thereon. 30 mL of the agricultural composition diluted 500 times with water was sprayed on the kidney bean leaves using a hand spray. After air drying, the larvae were kept in a constant temperature chamber at 25° C. One day after the treatment, life and death was observed, and the death rate was calculated. In addition, the state of the kidney bean leaves after the test was observed, and the phytotoxicity was also evaluated.

kidney bean leaves = test: Phytotoxicity evaluation of kidney bean leaves after Test Example 2
Experimental: as §1
Evaluation Criteria for Phytotoxicity
• −: No change on the leaf surface • ±: Slight damage is recognized on the leaf surface • +: Damage is recognized on part of the leaf surface • ++: Damage is recognized on the entire surface of the leaf surface

| Molecule | Test Example 1 Spider mite imagoes (death rate) (Tetranychus urticae) [%] | Test Example 2 Thrip larvae (death rate) (Thrips palmi) [%] | Test Example 2 Leaf shape phytotoxicity (kidney bean leaves; in vivo) | Test Example 2 Leaf shape phytotoxicity (kidney bean leaves; kidney bean leaves after the test, composition diluted 500 times with water) |
| --- | --- | --- | --- | --- |
| CCCCCCCCCCCCN1CCCC1=O [Comparative Example 8, N-lauryl-2-pyrrolidone] | 100 | 100 | +++ |  |
| Diglycerin monocaprylic acid ester [Comparative Example 1] | 60 | 20 | − |  |
| N,N-dimethyl fatty acid (C8-10) amide [Comparative Example 4] |  |  | ++ |  |
| N,N-dimethyl fatty acid (C12-14) amide [Comparative Example 6] |  |  | +++ |  |
| Propylene glycol monolauric acid ester [Comparative Example 3] | 100 | 50 |  | − |
| Sorbitan monolauric acid ester [Comparative Example 2] | 0 | 20 | − |  |
